According to patent US10688197B2, “Non-alcoholic fatty liver regulator 14-3-3 protein” (Korea University Research and Business Foundation, priority 2015, dated 2020):

Assays:
[1] = target: T1, binding between PPARγ2 and 14-3-3γ (Homo sapiens, UniProt P37231); assay: GST-pull down assay, binding between PPARγ2 and 14-3-3γ (HEK-293T)
T1 construct: expressed in transfected cells; host or cells: HEK-293T
T1 sequence (P37231 1-505): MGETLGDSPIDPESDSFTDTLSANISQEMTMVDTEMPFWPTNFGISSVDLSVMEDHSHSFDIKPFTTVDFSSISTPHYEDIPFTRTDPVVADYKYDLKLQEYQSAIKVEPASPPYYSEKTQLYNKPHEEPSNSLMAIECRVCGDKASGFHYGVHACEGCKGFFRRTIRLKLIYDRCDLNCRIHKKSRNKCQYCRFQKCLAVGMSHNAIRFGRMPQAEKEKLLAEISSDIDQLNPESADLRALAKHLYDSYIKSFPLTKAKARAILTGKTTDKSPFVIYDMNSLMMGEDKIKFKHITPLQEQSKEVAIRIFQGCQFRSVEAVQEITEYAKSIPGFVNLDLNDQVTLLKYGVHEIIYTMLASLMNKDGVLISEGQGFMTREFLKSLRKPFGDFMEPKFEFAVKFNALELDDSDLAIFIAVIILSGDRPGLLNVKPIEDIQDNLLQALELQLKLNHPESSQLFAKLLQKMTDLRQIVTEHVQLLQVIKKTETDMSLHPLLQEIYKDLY
Procedure: After transfection, […], washed with ice-cold PBS, and lysed using 500 μl/well of a lysis buffer (150 mM NaCl, 1 mM EDTA, 1% Nonidet P-40, 5% glycerol, 25 mM tris-HCl, pH 7.5, protease inhibitor added), and the lysed cells were centrifuged at 10,000×g and 4° C. for 10 minutes to extract proteins. Thereafter, 1,000 μg of the proteins was reacted with 20 μl of glutathione Sepharose 4B beads (GE Healthcare, Buckinghamshire, UK) for 6 hours, and then washing of the beads with 1 ml of ice-cold PBS was repeated 5 times, and the beads were boiled at 100° C. for 10 minutes, followed by 10% SDS-PAGE gel separation and western blotting. A ratio of GST antibodies (Santa Cruz) to Myc antibodies (self-production) was 1:3000. The detection of each protein was performed using West Pico ECL (Thermo scientific, Rockford, Ill.) and identified in a darkroom.
After transfection, […], washed with ice-cold PBS, and lysed using 500 μl/well of a lysis buffer (150 mM NaCl, 1 mM EDTA, 1% Nonidet P-40, 5% glycerol, 25 mM tris-HCl, pH 7.5, protease inhibitor added), and the lysed cells were centrifuged at 10,000×g and 4° C. for 10 minutes to extract proteins. […]

[2] = test system: primary mouse hepatocytes; assay: mRNA expression by real-time PCR in primary mouse hepatocytes; type: cell-based; conditions: for mRNA expression of SREBP-1c and FAT/CD36: overexpression, oleic acid, FIG. 7B
Procedure: HepG2 cells and primary mouse hepatocytes were separately seeded in a 6-well plate at a density of 4×10^5 cells per each well, and then treated with 200 μM of oleic acid (OA) for 72 hours. For mRNA extraction, the corresponding cells were lysed with 1 ml/well of TRIzol (Invitrogen), 200 μl of chloroform was added thereto and mixed well, the resultant cells were maintained at room temperature for 5 minutes and then centrifuged at 12,000×g and 4° C. for 15 minutes, the obtained supernatant was mixed with 500 μl of isopropanol and then put on ice for 10 minutes, the resulting supernatant was centrifuged at 12,000×g and 4° C. for 15 minutes to remove a supernatant, and then pellets were dissolved with tertiary distilled water treated with diethyl pyrocarbonate (DEPC). 2 μg of mRNA was synthesized into cDNA using a Superscript First Strand cDNA Synthesis Kit (Bioneer, Daejeon, South Korea) and the synthesized cDNA as a template was amplified through polymerase chain reaction (PCR) using primers specific to PPARγ2, 14-3-3β, 14-3-3γ, SREBP-1c, SCD-1, ACC, FABP, FAT/CD36, and β-actin of humans, and was amplified through real-time PCR using primers specific to PPARγ2, 14-3-3β, 14-3-3γ, SREBP-1c, FAT/CD36, and GAPDH of mice. β-actin and GAPDH were used as controls to see whether mRNAs of the respective cells were compared in the same amount.
HepG2 cells were seeded in a 6-well plate at a density of 4×10^5 cells per each well, and then transfected with GFP-14-3-3β DNA (4 μg) or GFP-14-3-3γ DNA (4 μg) using an E-fection plus reagent (Lugen). A ratio of DNA to the E-fection plus reagent was 1:2, and this method was performed according to a manufacturer's manual. After transfection, the cells were treated with 200 μM of oleic acid (OA) for 72 hours, and for mRNA extraction, the corresponding cells were lysed with 1 ml/well of TRIzol (Invitrogen), 200 μl of chloroform was added thereto and mixed well, the resultant cells were maintained at room temperature for 5 minutes and then centrifuged at 12,000×g and 4° C. for 15 minutes, the obtained supernatant was mixed with 500 μl of isopropanol and then put on ice for 10 minutes, and the resulting supernatant was centrifuged at 12,000×g and 4° C. for 15 minutes to remove a supernatant, and then pellets were dissolved with tertiary distilled water treated with diethyl pyrocarbonate (DEPC). 2 μg of mRNA was synthesized into cDNA using a Superscript First Strand cDNA Synthesis Kit (Bioneer, Daejeon, South Korea) and the synthesized cDNA as a template was amplified through polymerase chain reaction (PCR) using primers specific to PPARγ2 (SEQ ID NOS: 1 and 2), 14-3-3β (SEQ ID NOS: 3 and 4), 14-3-3γ (SEQ ID NOS: 5 and 6), SREBP-1c, FAT/CD36, and β-actin of humans, and was amplified through real-time PCR using primers specific to SREBP-1c, FAT/CD36, and GAPDH of mice. β-actin and GAPDH were used as controls to see whether mRNAs of the respective cells were compared in the same amount.

| Compound | binding between 14-3-3γ and PPARγ2 ([1]; expression amount of 14-3-3β increased (HA-14-3-3β DNA 2 and 4 μg), FIG. 5B) | mRNA expression of SREBP-1c and FAT/CD36 [2] | binding between PPARγ2 and 14-3-3γ ([1]; 200 μM oleic acid 72 hours, FIG. 8B) | mRNA expression of PPARγ2 ([2]; oleic acid concentration-dependent, FIG. 6B) | mRNA expression of lipid metabolism-associated genes (PPARγ2 target genes) ([2]; oleic acid concentration-dependent, FIG. 6D) | mRNA expression amounts of 14-3-3β and 14-3-3γ ([2]; oleic acid treatment, FIG. 6B) |
| --- | --- | --- | --- | --- | --- | --- |
| 14-3-3β: 14-3-3 isoform protein overexpressed by DNA transfection; increases the transcriptional activity of PPARγ2 by binding to PPARγ2 | reduced | further increased | – | – | – | – |
| 14-3-3γ: 14-3-3 isoform protein overexpressed by DNA transfection; decreases the transcriptional activity of PPARγ2; proposed active ingredient | – | reduced | – | – | – | – |
| CCCCCCCC/C=C\CCCCCCCC(=O)O [oleic acid] | – | – | reduced | increased | increased | no changes |
